According to the supplement of paper PMC4932681:

Assays:
Assay in all cases: viability inhibition at highest dose (% inhibition); higher = more growth inhibition
MCF-7 = conditions: 72 h
Method: (§1)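 Percent inhibition of viability (CellTiter-Glo, 72 h) at the highest tested concentration (D5), normalised to DMSO (0%) and 100 µM benzethonium chloride (100%). Resistant lines and the 'in 1µM tamoxifen' arms were tested in 1 µM 4-OH-tamoxifen.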

T-47D = conditions: 72 h
Method: as §1

MCF-7 Tam1 = conditions: 4-OH-tamoxifen in medium 1 µM; 72 h
Method: as §1

ZR-75-1 Tam2 = conditions: 4-OH-tamoxifen in medium 1 µM; 72 h
Method: as §1

BT-474 = conditions: 72 h
Method: as §1

BT-474 Tam2 = conditions: 4-OH-tamoxifen in medium 1 µM; 72 h
Method: as §1

ZR-75-1 = conditions: 72 h
Method: as §1

ZR-75-1 Tam1 = conditions: 4-OH-tamoxifen in medium 1 µM; 72 h
Method: as §1

T-47D Tam2 = conditions: 4-OH-tamoxifen in medium 1 µM; 72 h
Method: as §1

T-47D Tam1 = conditions: 4-OH-tamoxifen in medium 1 µM; 72 h
Method: as §1

BT-474 Tam1 = conditions: 4-OH-tamoxifen in medium 1 µM; 72 h
Method: as §1

SMILES	viability inhibition at highest dose (MCF-7; 4-OH-tamoxifen in medium 0 µM)	viability inhibition at highest dose (MCF-7; 4-OH-tamoxifen in medium 1 µM)	viability inhibition at highest dose (T-47D; 4-OH-tamoxifen in medium 0 µM)	viability inhibition at highest dose (T-47D; 4-OH-tamoxifen in medium 1 µM)	viability inhibition at highest dose (MCF-7 Tam1)	viability inhibition at highest dose (ZR-75-1 Tam2)	viability inhibition at highest dose (BT-474; 4-OH-tamoxifen in medium 0 µM)	viability inhibition at highest dose (BT-474; 4-OH-tamoxifen in medium 1 µM)	viability inhibition at highest dose (BT-474 Tam2)	viability inhibition at highest dose (ZR-75-1; 4-OH-tamoxifen in medium 0 µM)	viability inhibition at highest dose (ZR-75-1; 4-OH-tamoxifen in medium 1 µM)	viability inhibition at highest dose (ZR-75-1 Tam1)	viability inhibition at highest dose (T-47D Tam2)	viability inhibition at highest dose (T-47D Tam1)	viability inhibition at highest dose (BT-474 Tam1)
CC[C@]1(O)C[C@H]2CN(CCc3c([nH]c4ccccc34)[C@@](C(=O)OC)(c3cc4c(cc3OC)N(C=O)[C@H]3[C@@](O)(C(=O)OC)[C@H](OC(C)=O)[C@]5(CC)C=CCN6CC[C@]43[C@@H]65)C2)C1 [Vincristine] (drug 10000 nM)	56.6	54.4	16.5	31.2	12.1	35.9	47.4	83.8	84.9	28.7	28.5	29.2	59	68.8	93.7
CC(C)C[C@H](NC(=O)[C@@H](COC(C)(C)C)NC(=O)[C@H](Cc1ccc(O)cc1)NC(=O)[C@H](CO)NC(=O)[C@H](Cc1c[nH]c2ccccc12)NC(=O)[C@H](Cc1cnc[nH]1)NC(=O)[C@@H]1CCC(=O)N1)C(=O)N[C@@H](CCCNC(=N)N)C(=O)N1CCC[C@H]1C(=O)NNC(N)=O [Goserelin acetate] (drug 10000 nM)	-35	2.51	-9.98	-8.33	-8.86	-3.44	-9.97	-17.3	3.49	-9.52	-3.92	3.63	13	3.41	4.09
C[C@H]1C[C@@H]2[C@H]([C@@H](O)C[C@@]3(C)[C@H]2CC[C@]3(O)C(=O)CO)[C@@]2(C)C=CC(=O)C=C12 [Methylprednisolone] (drug 10000 nM)	-1.81	18.4	-19.3	-15.1	-0.753	0.244	-7.44	-20.6	-2.3	-6.28	-4.27	6.19	8.67	-1.09	-9.86
N#Cc1ccc(C(c2ccc(C#N)cc2)n2cncn2)cc1 [Letrozole] (drug 10000 nM)	-10.7	-14.2	-9.48	0.428	-6.5	-2.74	-5.7	-8.86	-3.68	-2.82	-9.49	-0.517	6.57	-0.0184	-6.74
CO[C@@H](C(=O)N1Cc2[nH]nc(NC(=O)c3ccc(N4CCN(C)CC4)cc3)c2C1)c1ccccc1 (drug 10000 nM)	20.9	7.45	29.4	17.6	8.32	-19.5	-18.6	-36.3	-18.2	-27.9	-21.1	-23.1	34.4	38.4	-17.9
Oc1ncnc2[nH]ncc12 [Allopurinol] (drug 10000 nM)	-21.9	-2.88	0.987	3.06	3.95	-2.7	2.31	19.8	8.84	-2.05	9.69	8.36	4.5	5	-0.277
Nc1ncn([C@@H]2O[C@H](CO)[C@@H](O)[C@H]2O)c(=O)n1 [Azacitidine] (drug 10000 nM)	31.9	-0.966	16.3	-5.14	1.85	7.49	11.1	12.4	17.2	11.2	0.709	11.9	21	23.6	1.3
Nc1cc(C(F)(F)F)c(-c2cc(N3CCOCC3)nc(N3CCOCC3)n2)cn1 [Buparlisib (BKM-120)] (drug 10000 nM)	72.8	72.2	75.8	77.6	42.8	61.8	64.5	88.6	89.9	57.9	48.8	57	71.3	70.7	93.8
COc1cc(Nc2ncc3c(n2)-c2ccc(Cl)cc2C(c2c(F)cccc2OC)=NC3)ccc1C(=O)O [Alisertib (MLN8237)] (drug 10000 nM)	17.2	7.64	27.3	28.5	16.2	4.01	11.6	34.7	-5.31	-2.57	9.24	-1.42	41	38.9	13.6
COC1=C2C[C@@H](C)C[C@H](OC)[C@H](O)[C@@H](C)/C=C(\C)[C@H](OC(N)=O)[C@@H](OC)/C=C\C=C(/C)C(=O)NC(=CC1=O)C2=O [Geldanamycin] (drug 10000 nM)	85.8	78.5	73.3	74.9	58.9	66.7	67.6	69.7	82.1	62	80.5	69	67.1	82.4	83.6
O=C(Cc1ccc(-c2ccc(OCCN3CCOCC3)cc2)cn1)NCc1ccccc1 [KX2-391] (drug 10000 nM)	44.4	55.3	24.2	25.3	16.8	47.8	41	82.9	92.2	41.1	38.6	43.1	47.3	74.1	92.7
CCN1CCN(c2ccc(Nc3cc(N(C)C(=O)Nc4c(Cl)c(OC)cc(OC)c4Cl)ncn3)cc2)CC1 [NVP-BGJ398] (drug 1000 nM)	-15.8	2.98	-9.62	3.56	0.341	-4.28	-15.6	1.03	5.89	-1.6	-10.3	-4.94	-8.43	5.28	14.4
CCCS(=O)(=O)Nc1ccc(F)c(C(=O)c2c[nH]c3ncc(-c4ccc(Cl)cc4)cc23)c1F [Vemurafenib (PLX4032)] (drug 10000 nM)	7.54	-8.65	-10.9	17.5	3.76	0.975	-0.692	16.2	-15	-0.616	10.2	8.49	21.7	-8.15	-8.2
CC(=O)O[C@@]12CO[C@@H]1C[C@H](O)[C@@]1(C)C(=O)[C@H](O)C3=C(C)[C@@H](OC(=O)[C@H](O)[C@@H](NC(=O)OC(C)(C)C)c4ccccc4)C[C@@](O)([C@@H](OC(=O)c4ccccc4)[C@H]21)C3(C)C [Docetaxel] (drug 1000 nM)	31.6	24.3	44.4	8.26	-2.6	1.01	45.8	62.5	13.4	-2.11	1.03	6.28	37.3	27.5	38.1
CNC(=O)c1ccc(N2C(=S)N(c3ccc(C#N)c(C(F)(F)F)c3)C(=O)C23CCC3)cc1F [RD162] (drug 10000 nM)	-8.95	8.98	-17.8	17.8	3.13	1.22	-4.36	-3.06	13.7	-4.4	3.37	2.17	3.39	3.92	13.8
C[C@]12CC[C@@H]3c4ccc(O)cc4C[C@@H](CCCCCCCCC[S+]([O-])CCCC(F)(F)C(F)(F)F)[C@H]3[C@@H]1CC[C@@H]2O (stereo not given in full) [Fulvestrant] (drug 1000 nM)	31.4	17.5	1.98	-1.62	-0.218	-6.33	-5.27	-0.276	4.97	-18.5	-4.88	-1.86	8.69	12.9	-6.25
CO[C@H]1/C=C\C=C(/C)C(=O)NC2=CC(=O)C(NCCN(C)C)=C(C[C@@H](C)C[C@H](OC)[C@H](O)[C@@H](C)/C=C(\C)[C@@H]1OC(N)=O)C2=O [Alvespimycin (17-DMAG)] (drug 1000 nM)	65	47.8	49.9	37.1	30.2	44.1	49	76.7	68.2	32.7	47	32.9	49.2	35	78.3
COc1nc(N)nc2c1ncn2[C@@H]1O[C@H](CO)[C@@H](O)[C@@H]1O [Nelarabine] (drug 10000 nM)	13.2	-6.84	1.79	6.8	4.67	2.19	-2.92	16.3	-6.72	11.1	4.17	1.44	-4.97	-2.1	0.136
CCc1cncnc1N1CCN(Cc2nc3ccc(C(F)(F)F)cc3[nH]2)CC1 (drug 10000 nM)	37.2	33.2	33	15.3	20.7	25.5	36	53.7	41.4	18.5	28.3	17.9	31	33.4	68.5
CN(N=O)C(=O)N[C@@H](C=O)[C@@H](O)[C@H](O)[C@H](O)CO [Streptozocin] (drug 10000 nM)	-9.93	-7.59	-10.8	-3.95	-3.41	-12.2	-7.13	3.07	-7.21	-9.82	2.7	1.17	9.65	-3.33	-7.72
